“And” between values parts separate entries of the source, which are not always exact repeats. Equal entries are not always repeated. “Also recorded” adds a separate entry of the source.
Tests used:
[1] = tested on: B. theta; assay: Inhibitor screen in bacteria, B. theta culture; type: cell-based, Bacteroides thetaiotaomicron VPI-5482; settings: FIG. 2c, 100 μM inhibitor, 21 h, replicates 1-3
Protocol: (§1) Bacterial Culturing. All bacterial strains were cultured at 37° C. in Cullen-Haiser Gut (CHG) media (which consists of brain heart infusion media (Bacto™ BHI, BD) supplemented with 1% BBL vitamin K1-hemin solution (BD), 1% trace minerals solution (ATCC), 1% trace vitamins solution (ATCC), 5% fetal bovine serum (Hyclone), 1 g/L cellubiose, 1 g/L maltose, and 1 g/L fructose) or BHI^+ (Bacto™ BHI, BD, supplemented with 5 mg/L hemin, and 2.5 uL/L Vitamin K1). All strains were grown under anaerobic conditions in a anaerobic chamber (Coy Lab Products Airlock) with a gas mix of 5% hydrogen and 20% carbon dioxide nitrogen. Escherichia coli was grown aerobically at 37° C. in LB medium supplemented with ampicillin to select for the pET21b plasmid.
(§2) Inhibitor Screen in Bacteria. Bacterial cultures were diluted to OD600 of 0.1 in 4 mL BHI^+, containing 100 μM taurine conjugated bile acid pool 100 μM inhibitors. […] After 21 h, serial dilutions were plated on BHI^+ agar to determine cell viability (CFU/mL). […] The cultures were spun down in a centrifuge at 2,500 g for 5 mins to obtain better separation. The organic layer was then removed and the aqueous layer was extracted again using 2 mL of ethyl acetate.

[2] = tested on: B. fragilis; assay: Inhibitor screen in bacteria, B. fragilis culture; type: cell-based, Bacteroides fragilis ATCC 25285; settings: FIG. 2c, 100 μM inhibitor, 100 μM bile acid pool, 21 h, replicates 1-3
Protocol: as §1, §2

[3] = tested on: B. vulgatus; assay: Inhibitor screen in bacteria, B. vulgatus culture; type: cell-based, Bacteroides vulgatus ATCC 8482; settings: FIG. 2c, 100 μM inhibitor, 100 μM bile acid pool, 21 h, replicates 1-3
Protocol: as §1, §2

[4] = tested on: L. plantarum; assay: Inhibitor screen in bacteria, L. plantarum culture; type: cell-based, Lactobacillus plantarum WCFS1
[5] = tested on: C. perfingens; type: cell-based, Clostridium perfringens ATCC 13124; settings: FIG. 2c, C. perfingens culture; 100 μM inhibitor, 100 μM bile acid pool, 21 h; replicates 1-3
[6] = tested on: B. adolescentis; assay: Inhibitor screen in bacteria, B. adolescentis culture; type: cell-based, Bifidobacterium adolescentis L2-32; settings: FIG. 2c, 100 μM inhibitor, 100 μM bile acid pool, 21 h, replicates 1-3
[7] = tested on: three Gram negative and three Gram positive strains of human gut bacteria; assay: BSH inhibition in growing cultures of six gut bacterial strains (overall statements); type: cell-based; settings: 100 μM inhibitor, 100 μM conjugated bile acid mixture
[8] = tested on: BSH activity in conventional mouse feces; assay: Screen of inhibitors in conventional mouse feces; type: biochemical
Protocol: Screen of Inhibitors in Conventional Mouse Feces. […] The tubes were then frozen in dry ice for 5 mins and upon thawing were diluted with an equal volume of methanol. […] The supernatant was removed into a clean eppendorf tube and centrifuged again. […] The concentration of product detected from these assays was reported directly.

[9] = tested on: B. theta BSH KO strain; assay: Incubation with BSH-deleted B. theta strain; settings: 100 μM inhibitor
[10] = target: B. theta BSH (Bacteroides thetaiotaomicron, UniProt Q8A600); assay: Inhibitor screen using rBSH, B. theta BSH (UPLC-MS % deconjugation); settings: 100 μM inhibitor, 30 min preincubation, monitored over 21 hours
[11] = tested on: three Gram negative and three Gram positive strains of human gut bacteria; assay: Growth (OD600) and cell viability (CFU/mL) of the six gut bacterial strains; settings: 100 μM inhibitor
[12] = target: T1, B. longum BSH (Bifidobacterium longum, UniProt Q9KK62); assay: Inhibitor screen using rBSH, B. longum BSH (UPLC-MS % deconjugation); type: biochemical, Bifidobacterium longum SBT2928; parameters: His6 (C); made in house; host or cells: Escherichia coli (as for the B. theta enzyme); settings: 100 μM inhibitor; 2 h, 5 h and 21 h timepoints
T1 sequence (Q9KK62 1-317): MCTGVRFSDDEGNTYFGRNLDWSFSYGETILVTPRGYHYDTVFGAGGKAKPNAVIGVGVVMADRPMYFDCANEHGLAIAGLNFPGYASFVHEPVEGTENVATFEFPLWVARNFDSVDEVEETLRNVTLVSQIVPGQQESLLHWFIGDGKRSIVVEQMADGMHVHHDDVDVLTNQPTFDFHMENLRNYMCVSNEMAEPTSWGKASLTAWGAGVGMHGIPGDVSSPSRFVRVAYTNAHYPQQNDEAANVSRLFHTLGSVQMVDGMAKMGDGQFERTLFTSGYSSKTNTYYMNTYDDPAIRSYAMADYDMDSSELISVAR
Protocol: B. longum rBSH. Recombinant BSH from B. longum SBT2928 was expressed and purified as above, except 0.25 mM IPTG was used for protein expression and 1 mM TCEP for protein purification.
Inhibitor Screen Using rBSHs.

[13] = substrate: C[C@H](CCC(=O)NCCS(=O)(=O)O)[C@H]1CC[C@H]2[C@@H]3CC[C@@H]4C[C@H](O)CC[C@]4(C)[C@H]3C[C@H](O)[C@]12C; assay: purified protein, by the assay type
[14] = substrate: C[C@H](CCC(=O)NCCS(=O)(=O)O)[C@H]1CC[C@H]2[C@@H]3[C@@H](O)C[C@@H]4C[C@H](O)CC[C@]4(C)[C@H]3CC[C@]12C; assay: purified protein, by the assay type
[15] = substrate: C[C@H](CCC(=O)NCCS(=O)(=O)O)[C@H]1CC[C@H]2[C@@H]3[C@H](O)C[C@@H]4C[C@H](O)CC[C@]4(C)[C@H]3C[C@H](O)[C@]12C; assay: purified protein, by the assay type; settings: other: Table 3; substrate of B. longum BSH; mean ± SEM, n = 3; pH 7.5; 37.0 °C
[16] = FIG. 2c, L. plantarum culture, 100 μM inhibitor, 100 μM bile acid pool, 21 h, replicates 1-3
[17] = other: Table 1, substrate of B. longum BSH, PBS pH 7.5, 37° C.
[18] = other: Table 3, substrate of B. longum BSH, mean ± SEM, n = 3, pH 7.5, 37.0 °C

For `O=C(/C=C/c1ccc(O)c(O)c1)OCCc1ccccc1` [CAPE, caffeic acid phenethyl ester, reference compound], the “% deconjugation of TDCA” value ([1]; 100 μM bile acid pool) was 2.06% and 0.90% and 0.81%, the “% deconjugation of TUDCA” value ([1]; 100 μM bile acid pool) was 2.31% and 5.36% and 2.32% and the “% deconjugation of TβMCA” value ([1]; 100 μM bile acid pool) was 0.64% and 0.28% and 0.16%. The “% deconjugation of TCA” value ([1]; 100 μM taurine conjugated bile acid pool) was 0.42% and 0.72% and 0.52%, the “% deconjugation of TCA” value [2] was 88.33% and 85.35% and 84.93% and the “% deconjugation of TDCA” value [2] was 98.95% and 98.93% and 99.13%. For the same molecule, the “% deconjugation of TUDCA” value [2] was 98.66% and 98.65% and 99.13%, the “% deconjugation of TβMCA” value [2] was 98.64% and 98.42% and 99.12% and the “% deconjugation of TCA” value [3] was 1.46% and 1.06% and 0.00%. For the same molecule, the “% deconjugation of TDCA” value [3] was 5.47% and 3.03% and 1.28%, the “% deconjugation of TUDCA” value [3] was 82.37% and 94.25% and 87.91% and the “% deconjugation of TβMCA” value [3] was 88.92% and 78.15% and 71.86%. For the same molecule, the “inhibition of deconjugation in L. plantarum (in words)” value ([4]; 100 μM CAPE) was “inhibit deconjugation in L. plantarum”, the “% deconjugation of TCA” value [4, 16] was 10.67% and 33.19% and 53.29% and the “% deconjugation of TDCA” value [4, 16] was 47.57% and 82.98% and 93.57%. For the same molecule, the “% deconjugation of TUDCA” value [4, 16] was 6.80% and 1.73% and 3.54%, the “% deconjugation of TβMCA” value [4, 16] was 0.06% and 0.59% and 0.95% and the “% deconjugation of TCA” value [5] was 100.00%. For the same molecule, the “% deconjugation of TDCA” value [5] was 99.71% and 99.30% and 99.38%, the “% deconjugation of TUDCA” value [5] was 98.92% and 98.62% and 98.71% and the “% deconjugation of TβMCA” value [5] was 100.00%. The “% deconjugation of TCA” value [6] was 100.00%, the “% deconjugation of TDCA” value [6] was 99.85% and 100.00% and 99.71% and the “% deconjugation of TUDCA” value [6] was 99.43% (2×) and 100.00%. The “% deconjugation of TβMCA” value [6] was 100.00%, the “deconjugation / BSH inhibition in cultures of the six bacterial strains (in words)” value [7] was “no inhibition of deconjugation was observed over the course of 21 hours in five out of the six bacterial strains; also recorded: neither riboflavin nor CAPE displayed significant inhibitory activity against any of the Gram negative strains; also recorded: No BSH inhibition in five out of the six bacterial strains” and the “BSH activity in resuspended conventional mouse feces (in words)” value ([8]; 20 μM inhibitor, 30 min, then GCDCA-d4 100 μM, 18 hours) was “minimal inhibitory activity; also recorded: no inhibition of BSH activity in feces”. The “deconjugation in resuspended mouse feces (in words)” value ([8]; either 20 μM or 100 μM) was “did not noticeably reduce deconjugation”, the “bactericidal effect on BSH-deleted B. theta (CFUs after 24 h)” value [9] was “significantly affect the growth” and the “inhibition of B. theta BSH (in words)” value [10] was “only moderate inhibition”. The “effect on bacterial cell viability (CFU/mL, plated at 21 h)” value [11] was “decreased the cell viability of the Gram negative strains tested; also recorded: inhibited the cell viability of all three Gram negative bacterial strains tested”, the “effect on bacterial growth (OD600 at 24 hours)” value [11] was “inhibited the growth of the Gram positive strains tested; also recorded: inhibited the growth of all three Gram negative bacterial strains tested; also recorded: significantly inhibits the growth of the strains of Gram negative gut bacteria tested” and the “inhibition of B. longum BSH (in words)” value [12] was “ineffective”.

B1: B. longum BSH (Bifidobacterium longum) (protein)
chain: T1 sequence (Q9KK62 1-317)
B1 showed a Km [13, 17] of 2.28 mM, a Km [13, 18] of 2.3 ± 0.3 mM and a Km [14, 17] of 4.14 mM. For the same molecule, the Km [14, 18] was 4.1 ± 2.5 mM, the Km [15] was 8.3 ± 2.5 mM and the kcat [15] was 0.115 s⁻¹. It also gave a kcat/Km [15] of 13.3 M⁻¹ s⁻¹.

Reference: patent publication US12577273B2, “Small molecule modulators of gut bacterial bile acid metabolism” (priority 2019, dated 2026)
